{
  "source": "paper PMC11790914",
  "about": "“Chemogenomics for steroid hormone receptors (NR3)” (Communications Chemistry, 2025)",
  "key": {"NR3B2 (ERRβ)": {"tested_on": "NR3B2 (ERRβ)", "conditions": "ref Supplementary Table 1, cited from earlier work"}, "NR3A2 (ERβ)": {"tested_on": "NR3A2 (ERβ)", "conditions": "(lit.); ref Supplementary Table 1; read-out: Potency [nM] IC50, NR3A2 (ERβ); cited from earlier work"}, "NR1I2 (PXR)": {"molecular_target": "T1, NR1I2 (PXR) (Homo sapiens, UniProt O75469)", "T1 construct": "expressed in transfected cells; host or cells: HEK293T", "T1 sequence (O75469 146-433 limits assumed)": "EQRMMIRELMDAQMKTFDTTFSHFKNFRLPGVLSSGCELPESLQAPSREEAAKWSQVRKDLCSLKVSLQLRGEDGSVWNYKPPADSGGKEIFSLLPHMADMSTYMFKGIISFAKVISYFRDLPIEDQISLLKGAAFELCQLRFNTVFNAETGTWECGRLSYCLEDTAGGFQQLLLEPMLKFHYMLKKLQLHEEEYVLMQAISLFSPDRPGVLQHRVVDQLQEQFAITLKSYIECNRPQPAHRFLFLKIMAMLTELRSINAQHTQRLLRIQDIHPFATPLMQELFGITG", "test": "Gal4 hybrid reporter gene assay PXR", "assay_type": "cell-based", "conditions": "1 µM, n=3", "procedure": "(§1) Reference ligands are listed in the methods section.\n(§2) HEK293T cells (ATCC, Manassas, Virgina, USA; #CRL-3216) were cultured to a maximal confluence of 70–80% in DMEM, high glucose, supplemented with 10% FCS, sodium pyruvate (1 mM), penicillin (100 U/mL), and streptomycin (100 μg/mL) at 37 °C and 5% CO2 (v/v), and seeded in clear 96-well plates (4 × 10^4 cells per well). After 20–24 h, medium was changed to Opti-MEM without supplements and the cells were transiently transfected using Lipofectamine™ LTX/Plus™ Reagents (Invitrogen, Carlsbad, California, USA; #15338100) according to the manufacturer’s protocol with pFR-Luc (reporter gene; Stratagene, Agilent Technologies, Santa Clara, California, USA; #219050), pRL-SV40 (control gene for normalization of transfection efficiency and cell growth; Promega, Fitchburg, Wisconsin, USA; #E2231) and one pFA-CMV-hNR-LBD clone coding for the hinge region and ligand binding domain (LBD) of the human NR of interest. […] Firefly (reporter) and renilla (control) luminescence were measured after 14–16 h incubation using the Dual-Glo® Luciferase Assay System (Promega, Fitchburg, Wisconsin, USA; #E2980) according to manufacturer’s protocol on a Tecan Spark® 10M multimode microplate reader (Tecan Group AG, Männedorf, Switzerland). To obtain relative light units (RLU) firefly luminescence was divided by renilla luminescence and multiplied by 1000. […]"}, "NR1B1 (RARα)": {"molecular_target": "T2, NR1B1 (RARα) (Homo sapiens, UniProt P10276)", "T2 construct": "expressed in transfected cells; host or cells: HEK293T", "T2 sequence (P10276 183-417 limits assumed)": "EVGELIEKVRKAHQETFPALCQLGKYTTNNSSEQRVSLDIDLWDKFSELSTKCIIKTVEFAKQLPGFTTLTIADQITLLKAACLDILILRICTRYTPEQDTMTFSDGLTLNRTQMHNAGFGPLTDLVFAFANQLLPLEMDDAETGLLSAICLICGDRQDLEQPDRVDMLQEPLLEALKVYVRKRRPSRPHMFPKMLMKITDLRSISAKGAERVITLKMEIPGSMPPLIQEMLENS", "test": "Gal4 hybrid reporter gene assay RARα", "assay_type": "cell-based", "parameters": "Activity on NR targets outside NR3 family [mean log10(fold reporter gene activity)] NR1B1 (RARα): concentration or dose not given beside the values", "procedure": "as §1\n(§3) Five hours after transfection, the cells were incubated with the NR3 CG compound candidates at the recommended concentrations by changing the medium to Opti-MEM supplemented with penicillin (100 µ/mL) and streptomycin (100 µg/mL) additionally containing 0.1% DMSO and the respective test compound or 0.1% DMSO alone as untreated control. Firefly (reporter) and renilla (control) luminescence were measured after 14–16 h incubation using the Dual-Glo® Luciferase Assay System (Promega, Fitchburg, Wisconsin, USA; #E2980) according to manufacturer’s protocol on a Tecan Spark® 10M multimode microplate reader (Tecan Group AG, Männedorf, Switzerland). To obtain relative light units (RLU) firefly luminescence was divided by renilla luminescence and multiplied by 1000. Fold activation was obtained by dividing the mean RLU of a test sample by the mean RLU of the DMSO (0.1%) control. Experiments were performed in singlets in at least three biologically independent repeats.\n(§4) Supplementary Figure 1. […] Compounds are labeled according\n(§5) Supplementary Figure 2. […] Compounds are\n(§6) representing the NR1, NR2, NR4 and NR5 families.\n(§7) scanning fluorimetry (DSF).\n(§8) a concentration of 20 µM."}, "NR2B1 (RXRα)": {"molecular_target": "T3, NR2B1 (RXRα) (Homo sapiens, UniProt P19793)", "T3 construct": "expressed in transfected cells; host or cells: HEK293T", "T3 sequence (P19793 227-458 limits assumed)": "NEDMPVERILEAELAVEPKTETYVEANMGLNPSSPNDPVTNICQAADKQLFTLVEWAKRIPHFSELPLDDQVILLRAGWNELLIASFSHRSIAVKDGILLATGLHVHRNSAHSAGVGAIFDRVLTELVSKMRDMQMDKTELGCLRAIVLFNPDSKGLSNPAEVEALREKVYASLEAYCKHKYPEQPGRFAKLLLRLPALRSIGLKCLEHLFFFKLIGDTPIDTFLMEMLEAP", "test": "Gal4 hybrid reporter gene assay RXRα", "assay_type": "cell-based", "conditions": "n=3", "procedure": "as §1, §3, §4, §5, §6, §7, §8"}, "NR4A1 (Nur77)": {"molecular_target": "T4, NR4A1 (Nur77) (Homo sapiens, UniProt P22736)", "T4 construct": "expressed in transfected cells; host or cells: HEK293T", "T4 sequence (P22736 360-595 limits assumed)": "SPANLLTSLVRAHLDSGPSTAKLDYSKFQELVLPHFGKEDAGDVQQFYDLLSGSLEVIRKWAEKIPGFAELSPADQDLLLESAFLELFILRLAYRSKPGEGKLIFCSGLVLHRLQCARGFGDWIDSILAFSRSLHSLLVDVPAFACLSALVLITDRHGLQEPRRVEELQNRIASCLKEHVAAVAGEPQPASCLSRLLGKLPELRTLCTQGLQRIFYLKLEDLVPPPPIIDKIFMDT", "test": "Gal4 hybrid reporter gene assay Nur77", "assay_type": "cell-based", "conditions": "10 µM, n=3", "procedure": "as §1, §2"}, "NR1C3 (PPARγ)": {"molecular_target": "T5, NR1C3 (PPARγ) (Homo sapiens, UniProt P37231)", "T5 construct": "expressed in transfected cells; host or cells: HEK293T", "T5 sequence (P37231 238-503 limits assumed)": "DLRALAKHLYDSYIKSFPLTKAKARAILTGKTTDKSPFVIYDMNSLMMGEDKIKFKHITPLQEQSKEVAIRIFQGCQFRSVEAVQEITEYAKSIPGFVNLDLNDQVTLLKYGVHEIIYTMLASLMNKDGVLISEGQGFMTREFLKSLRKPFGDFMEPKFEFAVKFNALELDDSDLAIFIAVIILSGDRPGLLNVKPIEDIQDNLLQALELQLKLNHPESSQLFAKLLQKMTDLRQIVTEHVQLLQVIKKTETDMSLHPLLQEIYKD", "test": "Gal4 hybrid reporter gene assay PPARγ", "assay_type": "cell-based", "conditions": "n=3", "procedure": "as §1, §2"}, "NR2A2 (HNF4α)": {"molecular_target": "T6, NR2A2 (HNF4α) (Homo sapiens, UniProt P41235)", "T6 construct": "expressed in transfected cells; host or cells: HEK293T", "T6 sequence (P41235 147-377 limits assumed)": "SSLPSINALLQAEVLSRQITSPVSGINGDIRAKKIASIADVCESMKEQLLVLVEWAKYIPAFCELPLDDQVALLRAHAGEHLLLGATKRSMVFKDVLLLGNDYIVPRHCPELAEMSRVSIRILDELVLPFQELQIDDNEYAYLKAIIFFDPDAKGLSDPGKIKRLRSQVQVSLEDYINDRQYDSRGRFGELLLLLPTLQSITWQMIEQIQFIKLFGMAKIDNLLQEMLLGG", "test": "Gal4 hybrid reporter gene assay HNF4α", "assay_type": "cell-based", "conditions": "n=3", "procedure": "as §1, §2"}, "NR1F3 (RORγ)": {"molecular_target": "T7, NR1F3 (RORγ) (Homo sapiens, UniProt P51449)", "T7 construct": "expressed in transfected cells; host or cells: HEK293T", "T7 sequence (P51449 269-508 limits assumed)": "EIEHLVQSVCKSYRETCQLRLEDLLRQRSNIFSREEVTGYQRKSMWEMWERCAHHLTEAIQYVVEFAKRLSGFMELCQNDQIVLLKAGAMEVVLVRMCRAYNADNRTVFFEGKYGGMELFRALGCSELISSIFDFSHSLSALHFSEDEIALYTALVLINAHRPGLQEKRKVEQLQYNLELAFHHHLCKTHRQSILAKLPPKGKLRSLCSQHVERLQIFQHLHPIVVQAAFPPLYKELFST", "test": "Gal4 hybrid reporter gene assay RORγ", "assay_type": "cell-based", "conditions": "3 µM, n=3", "procedure": "as §1, §2"}, "NR3C1 (GR)": {"tested_on": "NR3C1 (GR)", "conditions": "cited from earlier work"}, "NR3C3 (PR)": {"tested_on": "NR3C3 (PR)", "conditions": "cited from earlier work; for IC50: (lit.), ref Supplementary Table 1, read-out: Potency [nM] IC50, NR3C3 (PR)"}, "NR3C4 (AR)": {"tested_on": "NR3C4 (AR)", "conditions": "cited from earlier work"}},
  "data": [
    {"molecule": "CC/C(=C(\\c1ccc(O)cc1)c1ccc(OCCN(C)C)cc1)c1ccccc1", "note": "[(Z)-4-Hydroxytamoxifen]", "values": [
      {"measurement": "IC50", "setting": "NR3B2 (ERRβ); (lit.), read-out: Potency [nM] IC50, NR3B2 (ERRβ)", "result": 650, "unit": "nM"},
      {"measurement": "IC50", "setting": "NR3A2 (ERβ)", "result": "1 ± 1", "unit": "nM"}
    ]},
    {"molecule": "CC/C(=C(/c1ccc(/C=C/C(=O)O)cc1)c1ccc2[nH]ncc2c1)c1ccc(F)cc1Cl", "note": "[ARN810]", "values": [
      {"measurement": "IC50", "setting": "NR3A2 (ERβ)", "result": 9, "unit": "nM"},
      {"measurement": "Activity on NR1I2 (PXR)", "setting": "NR1I2 (PXR)", "result": "-0.68 mean log10(fold reporter gene activity)"},
      {"measurement": "Activity on NR1B1 (RARα)", "setting": "NR1B1 (RARα); 1 µM, n=3", "result": "-0.97 mean log10(fold reporter gene activity)"},
      {"measurement": "Activity on NR2B1 (RXRα)", "setting": "NR2B1 (RXRα); 1 µM", "result": "-0.29 mean log10(fold reporter gene activity)"}
    ]},
    {"molecule": "C[C@@H]1Cc2c([nH]c3ccccc23)[C@@H](c2c(F)cc(/C=C/C(=O)O)cc2F)N1CC(C)(C)F", "note": "[AZD9496]", "values": [
      {"measurement": "Activity on NR targets outside NR3 family [mean log10(fold reporter gene activity)] NR1B1 (RARα)", "setting": "NR1B1 (RARα)", "result": "-0.43 log10(fold reporter gene activity)"}
    ]},
    {"molecule": "COc1ccc(-c2coc3cc(O)cc(O)c3c2=O)cc1", "note": "[Biochanin A]", "values": [
      {"measurement": "Activity on NR4A1 (Nurr77)", "setting": "NR4A1 (Nur77)", "result": "0.34 mean log10(fold reporter gene activity)"},
      {"measurement": "Activity on NR1C3 (PPARγ)", "setting": "NR1C3 (PPARγ); 10 µM", "result": "-0.56 mean log10(fold reporter gene activity)"},
      {"measurement": "Activity on NR2A2 (HNF4α)", "setting": "NR2A2 (HNF4α); 10 µM", "result": "0.38 mean log10(fold reporter gene activity)"},
      {"measurement": "Activity on NR2B1 (RXRα)", "setting": "NR2B1 (RXRα); 10 µM", "result": "-0.68 mean log10(fold reporter gene activity)"}
    ]},
    {"molecule": "CCCC1O[C@@H]2C[C@H]3[C@@H]4CCC5=CC(=O)C=C[C@]5(C)[C@H]4[C@@H](O)C[C@]3(C)[C@]2(C(=O)CO)O1", "note": "(some centres unmarked) [Budesonide]", "values": [
      {"measurement": "Activity on NR1F3 (RORγ)", "setting": "NR1F3 (RORγ)", "result": "-0.30 mean log10(fold reporter gene activity)"}
    ]},
    {"molecule": "CCN(CC)c1ccc(/C=N/NC(=O)c2ccc(O)cc2)cc1", "note": "[DY131]", "values": [
      {"measurement": "rel. activity from literature, NR3B2 (ERRβ): fold activation", "setting": "NR3B2 (ERRβ)", "result": 2, "unit": "fold"},
      {"measurement": "Activity on NR targets outside NR3 family [mean log10(fold reporter gene activity)] NR2A2 (HNF4α)", "setting": "NR2A2 (HNF4α); 3 µM, vs. DMSO ctrl", "result": "0.29 log10(fold reporter gene activity)"},
      {"measurement": "Activity on NR targets outside NR3 family [mean log10(fold reporter gene activity)] NR1F3 (RORγ)", "setting": "NR1F3 (RORγ); vs. DMSO ctrl", "result": "0.21 log10(fold reporter gene activity)"}
    ]},
    {"molecule": "Cc1ccc2c(NC[C@](O)(CC(C)(C)c3cc(F)cc4c3OCC4)C(F)(F)F)cccc2n1", "note": "[Mapracorat]", "values": [
      {"measurement": "EC50", "setting": "NR3C1 (GR); (lit.), ref Supplementary Table 1, read-out: Potency [nM] EC50, NR3C1 (GR)", "result": "1.6 ± 0.3", "unit": "nM"},
      {"measurement": "rel. activity from literature, NR3C1 (GR): % transrepression", "setting": "NR3C1 (GR); transrepression", "result": "89 ± 4", "unit": "%"}
    ]},
    {"molecule": "CC#C[C@]1(O)CC[C@H]2[C@@H]3CCC4=CC(=O)CCC4=C3[C@@H](c3ccc(N(C)C)cc3)C[C@@]21C", "note": "[Mifepristone]", "values": [
      {"measurement": "IC50", "setting": "NR3C3 (PR)", "result": "[…]"},
      {"measurement": "rel. activity from literature, NR3C3 (PR): % rem. act. of PGN", "setting": "NR3C3 (PR); rem. act. of PGN (progesterone)", "result": "[…]"},
      {"measurement": "rel. activity from literature, NR3C4 (AR): % rem. act. of DHT", "setting": "NR3C4 (AR)", "result": "25 ± 2", "unit": "%"},
      {"measurement": "IC50", "setting": "NR3C4 (AR); read-out: Potency [nM] IC50, NR3C4 (AR), (lit.), ref Supplementary Table 1", "result": "5 ± 2", "unit": "nM"},
      {"measurement": "IC50", "setting": "NR3C1 (GR); (lit.), ref Supplementary Table 1, read-out: Potency [nM] IC50, NR3C1 (GR)", "result": "0.8 ± 0.1", "unit": "nM"},
      {"measurement": "rel. activity from literature, NR3C1 (GR): % rem. act. of DXM", "setting": "NR3C1 (GR); rem. act. of DXM (dexamethasone)", "result": "5 ± 1", "unit": "%"}
    ]},
    {"molecule": "COc1cc(/C=C(\\C#N)C(=O)Nc2nnc(C(F)(F)F)s2)ccc1OCc1ccc(C(F)(F)F)cc1C(F)(F)F", "note": "[XCT790]", "values": [
      {"measurement": "Activity on NR targets outside NR3 family [mean log10(fold reporter gene activity)] NR1C3 (PPARγ)", "setting": "NR1C3 (PPARγ); 1 µM, vs. DMSO ctrl", "result": "0.75 log10(fold reporter gene activity)"}
    ]},
    {"molecule": "C/C=C1\\C(=O)C[C@H]2[C@@H]3CCC4=CC(=O)CC[C@]4(C)[C@H]3CC[C@]12C", "note": "[Z-Guggulsterone]", "values": [
      {"measurement": "IC50", "setting": "NR3C3 (PR)", "result": "740 ± 220", "unit": "nM"},
      {"measurement": "EC50", "setting": "NR3C4 (AR); read-out: Potency [nM] EC50, NR3C4 (AR), (lit.), ref Supplementary Table 1", "result": "660 ± 240", "unit": "nM"}
    ]}
  ]
}
